Laboratory results: patent publication US20240254129A1, “HETEROCYCLIC COMPOUNDS AND USES THEREOF” (Kumquat Biosciences Inc., priority 2021, published 2024)
pIC50: −log10 of the molar value. Where two headings read alike, the source gives them in different places.

Assays:
[1] = target: GST-tagged K-Ras mutant / His-tagged hSOS1 (Homo sapiens, UniProt P01116); test: HTRF assay, K-Ras mutant / SOS1 interaction; assay type: binding; details: read-out: IC50 against mutant Kras
From the text: (§1) This assay can be also used to assess a selective inhibition of a mutant Ras protein relative to a wildtype, or relative to a different mutant Ras protein. For example, the equilibrium interaction of wildtype Kras or K-Ras mutant (e.g., wildtype or a mutant thereof including those mentioned in Example 6) with SOS1 (e.g., hSOS1) can be assessed as a proxy or an indication for a subject compound's ability to bind and inhibit Ras protein. HTRF assay detects from (i) a fluorescence resonance energy transfer (FRET) donor (e.g., antiGST-Europium) that is bound to GST-tagged K-Ras mutant to (ii) a FRET acceptor (e.g., anti-6His-XL665) bound to a His-tagged hSOS1.
(§2) The assay buffer can contain ˜5 mM HEPES pH 7.4, ˜150 mM NaCl, ˜ 1 mM DTT, 0.05% BSA and 0.0025% (v/v) Igepal. A Ras working solution is prepared in an assay buffer containing typically a suitable amount of the protein construct (e.g., GST-tagged K-Ras mutant) and the FRET donor (e.g., antiGST-Eu(K) from Cisbio, France). A SOS1 working solution is prepared in an assay buffer containing suitable amount of the protein construct (e.g., His-hSOS1) and the FRET acceptor (e.g., anti-6His-XL665 from Cisbio, France). A suitable amount of the protein construct will depend on the range of activity or range of IC50 values being detected or under investigation. For detecting IC50 within a range of 500 nM, the protein constructs of the same range of molarity can be utilized.
(§3) A fixed volume of DMSO with or without test compound is transferred into a 384-well plate. Ras working solution is added to all wells of the test plate. SOS1 working solution is added to all wells except for those that are subsequently filled the inhibitor control solution. Upon incubation for about 10 minutes or longer, the fluorescence is measured with a M1000Pro plate reader (Tecan) using HTRF detection (excitation 337 nm, emission 1: 620 nm, emission 2: 665 nm). Compounds are tested in duplicates at different concentrations (for example, 10 μM, 2.5 μM, 0.63 μM, 0.16 μM, 0.04 µM, 0.01 μM test compound). The ratiometric data (i.e., emission 2 divided by emission 1) is used to calculate IC50 values against Ras using GraphPad Prism (GraphPad software). Following this general procedure, samples were tested with or without a subject compound disclosed herein including compounds exemplified in Table 1 to assess their abilities to inhibit K-Ras signaling or their respective IC50 values against a given Ras protein (e.g., a given mutant K-Ras) of interest.

wildtype Kras / hSOS1 = target: T1, wildtype Kras / hSOS1 (Homo sapiens, UniProt P01116); test: HTRF assay, wildtype Kras / SOS1 interaction; assay type: binding; details: read-out: IC50 against wildtype Kras
T1 construct: made in house; host or cells: E. coli BL21 (DE3)
T1 sequence (P01116 1-188 isoform P01116-2): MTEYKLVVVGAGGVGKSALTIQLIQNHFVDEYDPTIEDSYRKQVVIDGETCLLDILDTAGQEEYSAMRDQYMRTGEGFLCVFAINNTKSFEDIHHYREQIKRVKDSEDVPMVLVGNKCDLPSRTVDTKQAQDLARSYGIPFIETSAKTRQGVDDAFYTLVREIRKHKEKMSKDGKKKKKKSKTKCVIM
From the text: as §1, §2, §3

[2] = compound nos. 102-196, general methodology of example 5

Chain of GST-tagged K-Ras mutant / His-tagged hSOS1 (P01116 whole entry G12D, form open): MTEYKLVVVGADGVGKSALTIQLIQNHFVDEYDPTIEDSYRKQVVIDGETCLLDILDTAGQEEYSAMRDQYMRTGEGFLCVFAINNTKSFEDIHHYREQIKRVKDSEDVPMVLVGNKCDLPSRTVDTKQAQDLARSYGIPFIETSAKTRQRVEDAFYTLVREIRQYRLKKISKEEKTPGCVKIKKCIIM

| Compound | pIC50 [1, 2] | pIC50 (wildtype Kras / hSOS1; [2]) | pIC50 ([1]; compound nos. 401-703) | pIC50 (wildtype Kras / hSOS1; compound nos. 401-703) |
| --- | --- | --- | --- | --- |
| CN1CCC(COc2nc(N3CCNCC(F)(F)C3)c3cc(Cl)c(-c4cccc5sc(N)nc45)c(F)c3n2)CC1 [Compound 134, 4-(6-chloro-4-(6,6-difluoro-1,4-diazepan-1-yl)-8-fluoro-2-((1-methylpiperidin-4-yl)-methoxy)quinazolin-7-yl)-benzo[d]thiazol-2-amine] | < 6.30 | > 6.30 | – | – |
| N#Cc1c(N)sc2c(F)ccc(-c3c(Cl)cc4c(N5CCCC6(CNC6)C5)nc(OC[C@@]56CCCN5C[C@H](F)C6)nc4c3F)c12 [Compound 526, 2-amino-4-(6-chloro-8-fluoro-2-(((2R,7aS)-2-fluorotetrahydro-1H-pyrrol-izin-7a(5H)-yl)methoxy)-4-(2,6-diazaspiro[3.5]nonan-6-yl)quinazolin-7-yl)-7-fluorobenzo[b]thiophene-3-carbonitrile] | – | – | > 6.30 | < 6.30 |
| N#Cc1csc2cccc(-c3c(Cl)cc4c(N5CC6CCC(C5)N6)nc(OC[C@@]56CCCN5C[C@H](F)C6)nc4c3F)c12 [Compound 674, 4-(4-(3,8-diazabicyclo-[3.2.1]-octan-3-yl)-6-chloro-8-fluoro-2-(((2R,7aS)-2-fluorotetrahydro-1H-pyrrol-izin-7a(5H)-yl)methoxy)-quinazolin-7-yl)benzo[b]-thiophene-3-carbonitrile] | – | – | > 6.30 | < 6.30 |
| Nc1cccc(-c2c(Cl)cc3c(N4CC5CCC(C4)N5)nc(OCC45CCCN4CCC5)nc3c2F)c1F [Compound 440, 3-(4-(3,8-diazabicyclo-[3.2.1]-octan-3-yl)-6-chloro-8-fluoro-2-((tetrahydro-1H-pyrrolizin-7a(5H)-yl)meth-oxy)quinazolin-7-yl)-2-fluoroaniline] | – | – | < 6.30 | > 6.30 |
| Fc1c(N2CCc3ccccc32)ccc2c(N3CCCCCC3)nc(OCC34CCCN3CCC4)nc12 [Compound 487, 4-(azepan-1-yl)-8-fluoro-7-(indolin-1-yl)-2-((tetra-hydro-1H-pyrrolizin-7a(5H)-yl)methoxy)quin-azoline] | – | – | < 6.30 | > 6.30 |
| Nc1cc(-c2ccc3c(N4CC5CCC(C4)N5)nc(OCC45CCCN4CCC5)nc3c2F)c2ccccc2n1 [Compound 641, 4-(4-(3,8-diazabicyclo-[3.2.1]octan-3-yl)-8-fluoro-2-((tetrahydro-1H-pyrrol-izin-7a(5H)-yl)methoxy)-quinazolin-7-yl)quinolin-2-amine] | – | – | < 6.30 | < 6.30 |
| Nc1c(-c2ccccc2)cccc1-c1c(Cl)cc2c(N3CC4CCC(C3)N4)nc(OCC34CCCN3CCC4)nc2c1F [Compound 683, 3-(4-(3,8-diazabicyclo-[3.2.1]-octan-3-yl)-6-chloro-8-fluoro-2-((tetrahydro-1H-pyrrolizin-7a(5H)-yl)meth-oxy)quinazolin-7-yl)-[1,1′-biphenyl]-2-amine] | – | – | < 6.30 | < 6.30 |
| CN1CCC[C@H]1COc1nc(N2CC3CCNC3C2)c2cc(Cl)c(-c3cccc4sc(N)nc34)c(F)c2n1 (stereo partly drawn) [Compound 124, 4-(6-chloro-8-fluoro-4-(hexahydropyrrolo[3,4-b]-pyrrol-5(1H)-yl)-2-(((S)-1-methylpyrrolidin-2-yl)meth-oxy)quinazolin-7-yl)benzo-[d]thiazol-2-amine] | < 6.30 | < 6.30 | – | – |
| CN1CCC[C@H]1COc1nc(N2CCCNCC(F)(F)C2)c2cc(Cl)c(-c3cccc4sc(N)nc34)c(F)c2n1 [Compound 127, 4-(6-chloro-4-(3,3-difluoro-1,5-diazocan-1-yl)-8-fluoro-2-(((S)-1-methylpyrrolidin-2-yl)methoxy)quinazolin-7-yl)benzo[d]thiazol-2-amine] | > 6.30 | > 6.30 | – | – |
| CN1CCC[C@H]1COc1nc(N2CCCCC(N)C2)c2cc(Cl)c(-c3cccc4sc(N)nc34)c(F)c2n1 (stereo partly drawn) [Compound 672, 4-(4-(3-aminoazepan-1-yl)-6-chloro-8-fluoro-2-(((S)-1-methylpyrrolidin-2-yl)meth-oxy)quinazolin-7-yl)ben-zo[d]thiazol-2-amine] | – | – | > 6.30 | < 6.30 |
| CN1CCC[C@H]1COc1nc(N2CCCCC(F)(F)C2)c2cc(Cl)c(-c3ccc(F)c4sc(N)nc34)c(F)c2n1 [Compound 108, 4-(6-chloro-4-(3,3-difluoro-azepan-1-yl)-8-fluoro-2-(((S)-1-methylpyrrolidin-2-yl)methoxy)quinazolin-7-yl)-7-fluorobenzo[d]thiazol-2-amine] | > 6.30 | > 6.30 | – | – |
| CN1CCC[C@H]1COc1nc(N2CCC3CNCC3C2)c2cc(Cl)c(-c3cccc4sc(N)nc34)c(F)c2n1 (stereo partly drawn) [Compound 143, 4-(6-chloro-8-fluoro-2-(((S)-1-methylpyrrolidin-2-yl)-methoxy)-4-(octahydro-5H-pyrrolo[3,4-c]pyridin-5-yl)-quinazolin-7-yl)benzo[d]-thiazol-2-amine] | < 6.30 | < 6.30 | – | – |
| Fc1c(-c2cccc3scc(Cl)c23)c(Cl)cc2c(N3CC4CCC(C3)N4)nc(OC[C@@]34CCCN3C[C@H](F)C4)nc12 [Compound 423, 4-(3,8-diazabicyclo[3.2.1]-octan-3-yl)-6-chloro-7-(3-chlorobenzo[b]thiophen-4-yl)-8-fluoro-2-(((2R,7aS)-2-fluorotetrahydro-1H-pyrrolizin-7a(5H)-yl)meth-oxy)quinazoline] | – | – | < 6.30 | > 6.30 |
| Nc1nc2c(-c3c(Cl)cc4c(N5CC6CCC(C5)N6)nc(OCC5(CN6CC[C@H](F)C6)CC5)nc4c3F)ccc(F)c2s1 [Compound 443, 4-(4-(3,8-diazabicyclo-[3.2.1]octan-3-yl)-6-chloro-8-fluoro-2-((1-(((S)-3-fluoropyrrolidin-1-yl)meth-yl)cyclopropyl)methoxy)-quinazolin-7-yl)-7-fluoro-benzo[d]thiazol-2-amine] | – | – | > 6.30 | > 6.30 |
| Nc1nc2c(-c3c(Cl)cc4c(N5CCNCC(F)(F)C5)nc(OCCCN5CCCC5)nc4c3F)ccc(F)c2s1 [Compound 555, 4-(6-chloro-4-(6,6-difluoro-1,4-diazepan-1-yl)-8-fluoro-2-(3-(pyrrolidin-1-yl)-propoxy)quinazolin-7-yl)-7-fluorobenzo[d]thiazol-2-amine] | – | – | > 6.30 | < 6.30 |
| Nc1nc2c(-c3c(Cl)cc4c(N5C6CCNCC5CC6)nc(OC[C@@]56CCCN5C[C@H](F)C6)nc4c3F)ccc(F)c2s1 (stereo partly drawn) [Compound 568, 4-(4-(3,9-diazabicyclo-[4.2.1]-nonan-9-yl)-6-chloro-8-fluoro-2-(((2R,7aS)-2-fluorotetrahydro-1H-pyrrol-izin-7a(5H)-yl)methoxy)-quinazolin-7-yl)-7-fluoro-benzo[d]thiazol-2-amine] | – | – | > 6.30 | < 6.30 |
| Fc1c(Br)c(Cl)cc2c(N3CCNCC(F)(F)C3)nc(OCC34CCCN3CCC4)nc12 [Compound 599, 7-bromo-6-chloro-4-(6,6-difluoro-1,4-diazepan-1-yl)-8-fluoro-2-((tetrahydro-1H-pyrrolizin-7a(5H)-yl)meth-oxy)quinazoline] | – | – | < 6.30 | < 6.30 |
| CN(C)CC1(COc2nc(N3CC4CCC(C3)N4)c3cc(Cl)c(-c4ccc(F)c5sc(N)nc45)c(F)c3n2)CC1 [Compound 523, 4-(4-(3,8-diazabicyclo-[3.2.1]octan-3-yl)-6-chloro-2-((1-((dimethylamino)-methyl)cyclopropyl)meth-oxy)-8-fluoroquinazolin-7-yl)-7-fluorobenzo[d]thiazol-2-amine] | – | – | > 6.30 | < 6.30 |
| N#CCCc1cc2c(N3CC4CCC(C3)N4)nc(OC[C@@]34CCCN3C[C@H](F)C4)nc2c(F)c1-c1ccc(F)c2sc(N)c(C#N)c12 [Compound 464, 4-(4-(3,8-diazabicyclo-[3.2.1]octan-3-yl)-6-(2-cyanoethyl)-8-fluoro-2-(((2R,7aS)-2-fluorotetra-hydro-1H-pyrrolizin-7a(5H)-yl)methoxy)quin-azolin-7-yl)-2-amino-7-fluorobenzo[b]thiophene-3-carbonitrile] | – | – | > 6.30 | > 6.30 |
